2 compounds from paper PMC9518609, “Design and synthesis of new trimethoxylphenyl-linked combretastatin analogues loaded on diamond nanoparticles as a panel for ameliorated solubility and antiproliferative activity” (Journal of Enzyme Inhibition and Medicinal Chemistry, 2022) can be followed below.

Type in all cases: cell-based
In one assay the test system is MCF-10A. Briefly: MTT cytotoxic activity against breast MCF-10A cell line. The settings on record: MTT assay, 24 h treatment. The text has this: All the synthesised compounds were screened for their cytotoxic activity against breast MDA-MB-231 cancer cell line and compounds 6 and 12 against breast MCF-10A cell line taking CA-4 as a positive control for the analysis. The in vitro cytotoxicity results of the prepared compounds were systematised in Table 1. […] Structurally, the prepared molecules contain three structural variations; including rotatable hydrazide derivatives, the core exchange with imidazolone ring, and the ring expansion with triazinone motif. […] It is noticed that directly attached benzene ring to triazinone scaffold (compound 6) or bioisosteric group (thiazolyl ester) as in compound 12, may contribute to the astonishing cytotoxicity against breast MDA-MB-231 cancer cells.
(§1) Part I: Biological Studies
(§2) 4.3. Biological evaluation
(§3) 4.3.1. Cytotoxic activity evaluation
(§4) The cytotoxic actvity of the synthesized derivatives 2a-13e was measured in MDA-MB-231 breast cancer cell line and derivatives 6 and 12 in MCF-10A […].
(§5) Cell viability assay was assessed using MTT assay method. Cells at density of 1 x 104 were seeded in a 96-well plate at 37 °C for 24 h under 5% CO2. After incubation, the cells were treated with different concentrations of the test schiff bases 2a-13e and incubated for 24 h, then 20 µl of MTT solution at 5 mg/mL was applied and incubated for 4 h at 37 °C.
Dimethyl sulphoxide (DMSO) in volume of 100 µl was added to each well to dissolve the purple formazan that had formed. The color intensity of the formazan product, which represents the growth condition of the cells, is quantified by using an ELISA plate reader (EXL 800, USA) at 570 nm absorbance. […]
(§6) Compounds 6, 12 and CA-4 were evaluated for their tubulin inhibitory activity according to manufacturer’s instructions using # abcam Human Beta-tubulin simplestep ELISA Kit ab245722. MDA-MB-231 cells were trypsinized, counted and seeded at the 2 × 105 into 96-well micro titer plates. […]
(§7) (O.D.) was measured at 450±10 nm using microplate reader (Spectromax Plus 96 well plate […]

For a further assay, the system named is β-tubulin. Briefly: β-tubulin polymerisation inhibition assay (Human Beta-tubulin ELISA kit) on MDA-MB-231 cells. The settings on record: MDA-MB-231 cell line, each compound at its IC50 concentration. As to the method: Trimethoxy phenyl fragment-containing natural stilbenoid-derived molecules, such as Colchicine and CA-4 bind to β-tubulin subunit at the colchicine binding site resulting in inhibition of microtubule assembly and suppression of its formation. […] From the obtained results it can be concluded that the antiproliferative activity of the synthesised triazinone-linked CA-4 derivatives may be derived from the inhibition of microtubule assembly.
Triazinone derivatives 6 and 12 were assessed for their tubulin inhibitory activity according to manufacturer’s instructions using # abcam Human Beta-tubulin simple step ELISA Kit ab245722.
as §1, §2, §3, §4, §5
Dimethyl sulphoxide (DMSO) in volume of 100 µl was added to each well to dissolve the purple formazan that had formed. The color intensity of the formazan product, which represents the growth condition of the cells, is quantified by using an ELISA plate reader (EXL 800, USA) at 570 nm absorbance. The experimental conditions were carried out with at least three replicates, and the experiments were repeated at least three times.
4.3.2. Tubulin inhibitions Assay
as §6, §7

The next assay relates to MDA-MB-231 cells. Briefly: Cell cycle analysis by DNA flow cytometry. The settings on record: MDA-MB-231, at IC50, 24 h; for %Pre-G1 (pre-G1 apoptosis): untreated control 1.99%; for %DIP G2/M (cells in G2/M phase): untreated control 5.64%. As to the method:
Targeting the cell cycle division at distinct checkpoints of cancer cells has been identified as a promising strategy for cancer chemotherapy.
Cell cycle analysis in MDA-MB-231 cells was investigated using a fluorescent Annexin V-FITC/PI detection kit (BioVision EZCell™ Cell Cycle Analysis Kit Catalog #K920) by flow cytometry assay. All experimental steps were performed as reported earlier.
4.3.3. Cell cycle analysis of compound 6 and 12
Cell cycle analysis in MDA-MB-231 cells was investigated using fluorescent Annexin V-FITC/ PI detection kit (BioVision EZCellTM Cell Cycle Analysis Kit Catalog #K920) by flow cytometry assay. MDA-MB-231 cells at a density of 2 × 10^5 per well were harvested and washed twice in PBS. After that, the cells were incubated at 37 °C and 5% CO2. The […]
washed twice in PBS, fixed with 70% ethanol, rinsed again with PBS. Afterward, medium was stained with DNA fluorochrome PI for 15 min at 37 °C. […]
All experiments were done in triplicates. […]

A further assay deals with p53. Briefly: ELISA measurement of p53 level in MDA-MB-231 cells. The settings on record: MDA-MB-231, at IC50, 24 h. The source says: (§8) p53, Bax, and Bcl-2 are key regulators of the apoptosis process to keep the balance between viable and dead normal cells. Deregulation of these proteins is a common feature responsible for uncontrolled cancer cell growth. In this test, the protein expression of apoptotic regulators was examined using ELISA analysis. […]
(§9) p53, Bax, and Bcl2 enzyme activities in MDA-MB-231 cells were investigated in the presence of compounds 6 and 12 at their IC50 concentration (µM). The levels of the tumour suppressor gene p53, apoptotic markers Bax as well as the anti-apoptotic marker Bcl-2 were assessed using the p53 ELISA kit, Human Bax ELISA kit, and Bcl-2 Elisa kit. The procedure of the used kits was done according to the manufacturer's instructions and was conducted as reported earlier. […]
(§10) 4.3.4.2. Effect on p53, Bax and Bcl-2 p53, Bax and Bcl2 enzyme activities in MDA-MB-231 cells were detected in the presence of compounds 6 and 12 at their IC50 concentration (µM). The levels of the tumor suppressor gene p53, apoptotic markers Bax as well as the anti-apoptotic marker Bcl-2 were assessed using p53 ELISA kit, Human Bax ELISA kit and Bcl-2 Elisa kit. The procedure of the used kits was done according to the manufacturer's instructions. […] The samples were measured at 450 nm in ROBONEK P2000 ELISA reader. […]

The subject of another assay is Bcl-2. Briefly: ELISA measurement of Bcl-2 level in MDA-MB-231 cells. As to conditions: MDA-MB-231, at IC50, 24 h.
Description: as §8, §9, §10

As for `COc1cc(C=C2N=C(c3cc(OC)c(OC)c(OC)c3)N(c3ccccc3)NC2=O)cc(OC)c1OC` [Compound 6, 2-phenyl-5-(3,4,5-trimethoxybenzylidene)-3-(3,4,5-trimethoxyphenyl)-1,2-dihydro-1,2,4-triazin-6(5H)-one], the midpoint of inhibition in the assay with MCF-10A (Homo sapiens, MCF-10A), the IC50, lay at 19.5 ± 2.15 µM. In addition, in the assay with β-tubulin, the “% Inhibition of β-tubulin polymerisation” value worked out at 77.61 ± 0.10%. In the assay on MDA-MB-231 cells, the “%Pre-G1 (pre-G1 apoptosis)” value is reported as 43.50% and the “%DIP G2/M (cells in G2/M phase)” value is listed as 35.09%. The “p53 level increase, fold change compared with no treatment control” value in the assay with p53 worked out at 11.96 fold. Also, in the assay on Bcl-2, the “Bcl-2 level decrease compared with no treatment control” value was determined as 6.49 fold.
As to “ethyl 2-(2-(6-oxo-5-(3,4,5-trimethoxybenzylidene)-3–(3,4,5-trimethoxyphenyl)-5,6-dihydro-1,2,4-triazin-2(1H)-yl)thiazol-4-yl)acetate [Compound 12]”, the IC50 in the assay on MCF-10A came to 14.6 ± 1.96 µM. Moreover, in the assay with β-tubulin, the “% Inhibition of β-tubulin polymerisation” value came out at 68.28 ± 0.16%. Also, in the assay on MDA-MB-231 cells, the “%Pre-G1 (pre-G1 apoptosis)” value was determined as 29.81% and the “%DIP G2/M (cells in G2/M phase)” value is 26.75%. In the assay on p53, the “p53 level increase, fold change compared with no treatment control” value was 5.20 fold. The “Bcl-2 level decrease compared with no treatment control” value in the assay with Bcl-2 was 2.96 fold.
